Source: patent US7098204B2 (C.N.R.S., priority 1999, dated 2006)
≈ marks a conversion by molar mass, not a printed value.

Columns and labels:
brain, SF-295 = test: Human cancer cell line SF-295 proliferation; type: cell-based
CDK1/cyclin B [1] = test: CDK1/cyclin B kinetic experiments varying ATP and HD; type: biochemical, starfish (Marthasterias glacialis)
Experimental: Blank values were subtracted and activities calculated as pmoles of phosphate incorporated for a 10 min. incubation (usually expressed in % of the maximal activity, i.e. without inhibitors). Controls were performed with appropriate dilutions of Me2SO. In some cases phosphorylation of the substrate was assessed by autoradiography after SDS-PAGE. IC50 values were estimated from the dose-response curves. • CDK1/cyclin B was extracted in homogenisation buffer from M phase starfish (Marthasterias glacialis) oocytes and purified by affinity chromatography on p9^CKShs1-Sepharose beads, from which it was eluted by free p9^CKShs1 as described. […] ATP (3,000 Ci/mmol; 1 mCi/ml) in a final volume of 30 μl. After 10 min. incubation at 30° C., 25 μl aliquots of supernatant were spotted onto 2.5×3 cm pieces of Whatman P81 phosphocellulose paper, and, 20 sec. later, the filters were washed five times (for at least 5 min. each time) in a solution of 10 ml phosphoric acid/liter of water. The wet filters were counted in the presence of 1 ml ACS (Amersham) scintillation fluid. • GSK-3β was either purified from rabbit muscle or expressed in and purified from insect Sf9 cells. […] ATP (3,000 Ci/mmol; 1 mCi/ml) in a final volume of 30 μl. […]

cdk4/cyclin D1 = cdk4/cyclin D1 (Homo sapiens, UniProt P11802); test: cdk4/cyclin D1 kinase assay; type: biochemical; settings: 15 μM ATP
Sequence of cdk4/cyclin D1 (P11802 whole entry, species assumed): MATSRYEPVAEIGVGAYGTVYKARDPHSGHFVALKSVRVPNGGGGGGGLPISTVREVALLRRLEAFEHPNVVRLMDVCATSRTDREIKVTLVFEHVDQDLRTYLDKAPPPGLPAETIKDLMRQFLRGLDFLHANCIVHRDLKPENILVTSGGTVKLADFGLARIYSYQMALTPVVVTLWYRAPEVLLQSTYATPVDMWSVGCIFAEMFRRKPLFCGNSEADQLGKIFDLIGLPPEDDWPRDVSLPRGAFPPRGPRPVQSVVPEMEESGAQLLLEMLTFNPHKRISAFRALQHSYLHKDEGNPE
Sequence of cdk4/cyclin D1 (P24385 whole entry partner, species assumed): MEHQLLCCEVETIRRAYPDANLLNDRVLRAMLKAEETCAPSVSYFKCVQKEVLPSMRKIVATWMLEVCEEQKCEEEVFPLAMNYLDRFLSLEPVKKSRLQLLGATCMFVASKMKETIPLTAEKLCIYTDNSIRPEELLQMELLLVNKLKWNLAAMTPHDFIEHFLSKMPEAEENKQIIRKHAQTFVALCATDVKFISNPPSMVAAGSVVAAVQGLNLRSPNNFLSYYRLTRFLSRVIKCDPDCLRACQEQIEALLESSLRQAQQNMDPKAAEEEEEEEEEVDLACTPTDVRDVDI
Experimental: (§1) Kinases activities were assayed in Buffer A or C (unless otherwise stated), at 30° C., at a final ATP concentration of 15 μM. Blank values were subtracted and activities calculated as pmoles of phosphate incorporated for a 10 min. incubation (usually expressed in % of the maximal activity, i.e. without inhibitors). Controls were performed with appropriate dilutions of Me2SO. In some cases phosphorylation of the substrate was assessed by autoradiography after SDS-PAGE. IC50 values were estimated from the dose-response curves. • CDK1/cyclin B was extracted in homogenisation buffer from M phase starfish (Marthasterias glacialis) oocytes and purified by affinity chromatography on p9^CKShs1-Sepharose beads, from which it was eluted by free p9^CKShs1 as described. The kinase activity was assayed in buffer C, with 1 mg histone H1/ml, in the presence of 15 μM [γ-^32P] ATP (3,000 Ci/mmol; 1 mCi/ml) in a final volume of 30 μl. After 10 min. incubation at 30° C., 25 μl aliquots of supernatant were spotted onto 2.5×3 cm pieces of Whatman P81 phosphocellulose paper, and, 20 sec. later, the filters were washed five times (for at least 5 min. each time) in a solution of 10 ml phosphoric acid/liter of water. The wet filters were counted in the presence of 1 ml ACS (Amersham) scintillation fluid. • GSK-3β was either purified from rabbit muscle or expressed in and purified from insect Sf9 cells. […]

c-src tyrosine kinase = c-src tyrosine kinase (Homo sapiens, UniProt P12931); test: c-src tyrosine kinase assay; type: biochemical; settings: 15 μM ATP
Sequence of c-src tyrosine kinase (P12931 whole entry): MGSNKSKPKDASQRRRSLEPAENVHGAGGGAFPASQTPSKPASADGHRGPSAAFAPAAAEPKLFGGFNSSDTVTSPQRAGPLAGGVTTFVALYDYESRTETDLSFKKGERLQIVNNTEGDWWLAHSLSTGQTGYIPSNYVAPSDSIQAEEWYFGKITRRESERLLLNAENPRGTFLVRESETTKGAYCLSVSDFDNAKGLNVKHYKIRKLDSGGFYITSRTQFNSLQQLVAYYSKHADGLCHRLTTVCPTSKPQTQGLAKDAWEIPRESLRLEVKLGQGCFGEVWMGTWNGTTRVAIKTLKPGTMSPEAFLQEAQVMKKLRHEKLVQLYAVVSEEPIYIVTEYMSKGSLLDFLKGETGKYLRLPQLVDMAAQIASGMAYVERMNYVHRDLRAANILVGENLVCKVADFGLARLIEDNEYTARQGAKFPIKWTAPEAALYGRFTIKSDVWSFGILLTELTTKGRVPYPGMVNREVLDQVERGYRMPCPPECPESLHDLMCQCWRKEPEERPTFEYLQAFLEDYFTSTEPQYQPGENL
Experimental: as §1

CDK1/cyclin B [2] = test: Cyclin B release from immobilised CDK1/cyclin B, Western blot; type: binding, starfish; settings: high HD concentrations, 30 min., beads washed
Experimental: Proteins bound to p9^CKShs1-Sepharose beads (starfish CDK1/cyclin B) were denatured with 2× Laemmli sample buffer. Samples were run on 10% SDS-polyacrylamide gels. Proteins were transferred from the gel to a 0.1 μm nitrocellulose sheet in a milliblot-SDE system (Millipore) for 30 min. at 2.5 mA/cm^2 in transfer buffer. Subsequently, the filter was blocked with 5% low fat milk in TBST for 1 hour. The filter was then washed with TBST and incubated for 1 hour with the first antibodies (anti-PSTAIRE, 1:2000; anti-cyclin B, 1:1000). After 4 washes (1×20 min., 3×5 min.) with TBST, the nitrocellulose sheet was treated for 1 hour with horseradish peroxidase-coupled secondary antibodies diluted in TBST (1:1000). The filter was then washed 5 times (1×20 min., 4×5 min.) with TBST and analysed by enhanced chemioluminescence with ECL detection reagents and hyperfilm MP.
To investigate the mechanism of HD action, kinetic experiments were performed by varying both ATP levels and HD concentrations (FIG. 6A). […] Enzyme activities were assayed as described under the Experimental Procedures section. Results illustrated by FIG. 6A: 1/v vs 1/ATP primary plot. ATP concentrations in the reaction mixture varied from 0.05 to 0.25 mM, concentration of histone H1 was kept constant at 0.7 mg/ml. […] Apparent inhibition constant (Ki) is indicated by an arrow.

Eg2 kinase = Eg2 kinase (Xenopus laevis, UniProt Q91820); test: Eg2 kinase assay; type: biochemical; settings: 15 μM ATP
Sequence of Eg2 kinase (Q91820 whole entry): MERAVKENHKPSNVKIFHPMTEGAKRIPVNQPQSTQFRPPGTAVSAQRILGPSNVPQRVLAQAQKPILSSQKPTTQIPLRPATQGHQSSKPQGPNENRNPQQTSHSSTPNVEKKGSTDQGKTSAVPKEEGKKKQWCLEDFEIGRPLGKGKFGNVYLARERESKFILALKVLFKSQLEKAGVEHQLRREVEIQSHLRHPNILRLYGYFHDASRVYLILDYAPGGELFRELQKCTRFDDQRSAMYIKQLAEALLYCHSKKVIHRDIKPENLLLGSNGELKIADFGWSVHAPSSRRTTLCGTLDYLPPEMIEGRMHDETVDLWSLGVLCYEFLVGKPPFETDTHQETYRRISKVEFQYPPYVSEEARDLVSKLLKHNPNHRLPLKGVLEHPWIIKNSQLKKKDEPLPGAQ
Experimental: (§2) Enzyme activities were assayed as described in the Experimental Procedures section, in the presence of increasing HD concentrations. IC50's were calculated from the dose-response curves.−, no effect at the highest dose tested (in parentheses).

topoisomerase I = topoisomerase I (Homo sapiens, UniProt P11387); test: topoisomerase I assay; type: biochemical; settings: −(x) = no effect at the highest dose tested (in parentheses)
Sequence of topoisomerase I (P11387 whole entry): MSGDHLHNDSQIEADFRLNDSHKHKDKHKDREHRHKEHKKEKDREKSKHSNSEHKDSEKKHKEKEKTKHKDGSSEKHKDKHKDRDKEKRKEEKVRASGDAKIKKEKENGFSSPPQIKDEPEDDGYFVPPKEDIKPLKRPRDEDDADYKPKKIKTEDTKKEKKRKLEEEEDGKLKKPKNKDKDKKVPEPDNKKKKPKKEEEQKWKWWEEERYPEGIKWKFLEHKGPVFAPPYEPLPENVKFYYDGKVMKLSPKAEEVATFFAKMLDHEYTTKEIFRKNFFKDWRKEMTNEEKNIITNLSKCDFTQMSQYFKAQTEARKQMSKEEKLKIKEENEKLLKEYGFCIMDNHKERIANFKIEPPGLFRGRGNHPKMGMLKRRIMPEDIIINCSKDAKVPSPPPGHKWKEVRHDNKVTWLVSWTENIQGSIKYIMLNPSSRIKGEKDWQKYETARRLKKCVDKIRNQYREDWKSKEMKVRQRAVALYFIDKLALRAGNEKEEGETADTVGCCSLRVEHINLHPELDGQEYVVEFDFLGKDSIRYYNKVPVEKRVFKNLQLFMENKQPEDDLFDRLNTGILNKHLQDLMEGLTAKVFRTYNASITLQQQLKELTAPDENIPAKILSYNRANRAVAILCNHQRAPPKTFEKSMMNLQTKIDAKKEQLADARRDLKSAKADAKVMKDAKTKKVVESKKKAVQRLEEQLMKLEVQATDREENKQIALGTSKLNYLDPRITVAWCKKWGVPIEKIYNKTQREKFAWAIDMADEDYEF
Experimental: as §2

NC1=NC(=O)C(=C2CCNC(=O)c3[nH]c(Br)cc32)N1 [hymenialdisine, 4-(2-amino-4-oxo-2-imidazolin-5-ylidene)-2-bromo-4,5,6,7-tetrahydropyrrolo (2,3-c) azepine-8-one] was tested, and the IC50 (brain, SF-295) was 38.9 µg/mL (≈ 120 µM), the Ki (CDK1/cyclin B [1]; ATP 0.05 to 0.25 mM, histone H1 0.7 mg/ml, read-out: apparent inhibition constant (Ki)) was 0.05 µM and the mechanism of inhibition (CDK1/cyclin B [1]; double-reciprocal plots) was “competitive inhibitor for ATP”. The IC50 (cdk4/cyclin D1) was 0.6 µM, the IC50 (c-src tyrosine kinase) was 7 µM and the “displacement of cyclin B from CDK1” value (CDK1/cyclin B [2]) was “does not act by displacing cyclin B from CDK1”. The IC50 (Eg2 kinase) was 4 µM and the IC50 (topoisomerase I) was greater than 10 µM.
